What follows are compounds tested on HepG2 (assay: Tested in vitro for hepatoprotective effect of 10 ug/ml of compound on cell growth and lesions in Hep G2 cells treated with aflatoxin B1 (10 e -5 M)).
Format: functional, Homo sapiens

Point of comparison: `CC1(C)C[C@@H](O)[C@]2(C)CC[C@]3(C)C(=CCC4[C@@]5(C)CCC[C@](C)(CO)C5CC[C@]43C)[C@@H]2C1` (stereo partly drawn), Protection 0%. Against it:
- CC1(C)CC[C@]2(C)CC[C@]3(C)C(=CCC4[C@@]5(C)CC[C@H](O)[C@](C)(CO)C5CC[C@]43C)[C@@H]2C1 (stereo partly drawn) — higher, 33%
- COC[C@]1(C)C2CC[C@]3(C)C(CC=C4[C@@H]5CC(C)(C)C[C@@H](O)[C@]5(C)CC[C@]43C)[C@@]2(C)CC[C@@H]1O (stereo partly drawn) — higher, 48%
- CC(=O)OC[C@]1(C)C2CC[C@]3(C)C(CC=C4[C@@H]5CC(C)(C)C[C@@H](O)[C@]5(C)CC[C@]43C)[C@@]2(C)CC[C@@H]1O (stereo partly drawn) — higher, 45%
- CC1(C)C[C@@H](O)[C@]2(C)CC[C@]3(C)C(=CCC4[C@@]5(C)CC[C@H](O)[C@](C)(C(=O)O)C5CC[C@]43C)[C@@H]2C1 (stereo partly drawn) — higher, 44%
- CC1(C)C[C@@H](O)[C@]2(C)CC[C@]3(C)C(=CCC4[C@@]5(C)CC[C@H](O)[C@](C)(C=O)C5CC[C@]43C)[C@@H]2C1 (stereo partly drawn) — higher, 32%
- CC1(C)C[C@@H](O)[C@]2(C)CC[C@]3(C)C(=CCC4[C@@]5(C)CC[C@H](O)[C@](C)(CO)C5CC[C@]43C)[C@@H]2C1 (stereo partly drawn) — higher, 14%
- CC(=O)O[C@H]1CC[C@@]2(C)C(CC[C@]3(C)C2CC=C2[C@@H]4CC(C)(C)C[C@@H](O)[C@]4(C)CC[C@]23C)[C@@]1(C)CO (stereo partly drawn) — the same, 0%
- CO[C@H]1CC[C@@]2(C)C(CC[C@]3(C)C2CC=C2[C@@H]4CC(C)(C)C[C@@H](O)[C@]4(C)CC[C@]23C)[C@@]1(C)CO (stereo partly drawn) — higher, 2%
- CC(=O)O[C@@H]1CC(C)(C)C[C@H]2C3=CCC4[C@@]5(C)CC[C@H](O)[C@](C)(CO)C5CC[C@@]4(C)[C@]3(C)CC[C@@]12C (stereo partly drawn) — higher, 11%
- CC1(C)C[C@@H](O)[C@]2(C)CC[C@]3(C)C(=CCC4[C@@]5(C)CC[C@H](O)C(C)(C)C5CC[C@]43C)[C@@H]2C1 (stereo partly drawn) — higher, 19%
- CO[C@@H]1CC(C)(C)C[C@H]2C3=CCC4[C@@]5(C)CC[C@H](O)[C@](C)(CO)C5CC[C@@]4(C)[C@]3(C)CC[C@@]12C (stereo partly drawn) — higher, 9%

These compounds were tested on HepG2 (assay: Tested in vitro for hepatoprotective effect of 20 ug/ml of compound on cell growth and lesions in Hep G2 cells treated with aflatoxin B1 (10 e -5 M)).
Format: functional, Homo sapiens

With `CC1(C)[C@@H](O[C@H]2O[C@H](C(=O)O)[C@@H](O)[C@H](O)[C@H]2O[C@@H]2O[C@H](C(=O)O)[C@@H](O)[C@H](O)[C@H]2O)CC[C@]2(C)[C@H]3C(=O)C=C4[C@@H]5C[C@@](C)(C(=O)O)CC[C@]5(C)CC[C@@]4(C)[C@]3(C)CC[C@@H]12` [GLYCYRRHIZIN] the Protection was 15%.

— ChEMBL document CHEMBL1130331, “Synthesis and hepatoprotective effects of soyasapogenol B derivatives” (1997)
